The values that follow come from patent US6506768B2, “Tetrahydro γ-carbolines” (Janssen Pharmaceutica N.V., priority 1997, dated 2003).

The structures appear in SMILES notation.

The target of assay [1] is T1, human 5HT2A receptor (Homo sapiens, UniProt P28223).
T1 construct: expressed in transfected cells; host or cells: L929sA cells (mouse fibro carcinoma cells), stably transfected, induced with m-interferon-b
Kind of assay: 5HT2A binding in L929sA cells (radioligand binding, 125I ligand). The note with it: membranes of L929sA cells expressing human 5HT2A receptors; 0.1 nM 125I radioligand; pIC50 = −log IC50, IC50 in M. The procedure: (§1) 5HT2 receptors were measured by radioligand binding studies either in homogenates from rat brains or in a membranes fraction prepared from L929sA cells (mouse fibro carcinoma cells), stably transfected with human 5HT2A receptor cDNA.
5HT2A Binding in L929sA Cells
L929sA cells expressing human 5HT2A receptors were cultured in Petri dishes in DMEM medium (Gibco cat.nr. 41965-039) enriched with 5% heat inactivated fetal calf serum and in the presence of penicillin and streptomycin sulphate. 24 h before collection, cells were induced with m-interferon-b (1000 U/ml medium). Cells were collected by scrapping and centrifugation at low speed (5 minutes at 1500 g). The cells were homogenized and centrifuged for 10 minutes at 23.000 g. The resulting pellet was diluted in Tris-HCl 50 mM pH 7.7 and stored at −70° C. On the day of the experiment, a vial was thawed and diluted in Tris-HCl buffer. 5HT2A receptors are labeled with 0.1 nM [^125I] 4-amino-N-[1-[3-(4-fluorophenoxy)propyl]-4-methyl-4-piperidinyl]-2-methoxybenzamide dihydrate. Membranes (0.2 ml) were incubated with the radioligand for 60 minutes at 37° C. in a total volume of 0.25 ml. The reaction was stopped by rapid filtration and the filter rounds were counted in an auto-gamma spectrophotometer.
(§2) Counting data from assays in the presence of test compound were automatically expressed as percent of total binding measured in the absence of test compound. Therefrom, the pIC50 (−log IC50)-values (IC50=concentration in M inhibiting 50% of the specific radioligand binding or neurotransmitter uptake) were derived and are listed in Table 9 (a “-” means “not measured”).

The target in assay [2] is T2, 5HT2 receptors (Rattus norvegicus, UniProt P14842).
T2 construct: 5HT2 receptors were measured in a rat frontal cortex membrane fraction; from tissue; host or cells: Wistar rat frontal cortex membrane fraction
Kind of assay: 5HT2 binding in rat frontal cortex (radioligand binding, [3H]ketanserin). The conditions noted are these: rat frontal cortex membrane fraction; 1 nM [3H]ketanserin; pIC50 = −log IC50, IC50 in M. The procedure: as §1
5HT2 Binding in Rat Frontal Cortex
5HT2 receptors were measured in a rat frontal cortex membrane fraction. Herefore wistar rats were killed by decapitation, brains were removed and frontal cortex was dissected. The frontal cortex was homogenized in Tris-HCL buffer 50 mM pH7.7. The homogenate was centrifuged at 23.000 g for 10 minutes. The resulting pellet was washed twice by resuspension and recentrifugation and the pellet was finally suspended in Tris-HCL buffer 50 mM pH7.7 in a dilution of 100 (vol/wet weight of tissue). 400 μl of the homogenate was incubated with 1 nM [^3H]ketanserin in a total incubation volume of 0.5 ml for 30 minutes at 37° C. The incubation was stopped by rapid filtration using a manual filtration manifold. The filters were rinsed twice with ice-cold buffer and were counted in a liquid scintillation counter. Non-specific binding was determined in the presence of 1 μM methysergide.
as §2

T2 sequence (P14842 whole entry): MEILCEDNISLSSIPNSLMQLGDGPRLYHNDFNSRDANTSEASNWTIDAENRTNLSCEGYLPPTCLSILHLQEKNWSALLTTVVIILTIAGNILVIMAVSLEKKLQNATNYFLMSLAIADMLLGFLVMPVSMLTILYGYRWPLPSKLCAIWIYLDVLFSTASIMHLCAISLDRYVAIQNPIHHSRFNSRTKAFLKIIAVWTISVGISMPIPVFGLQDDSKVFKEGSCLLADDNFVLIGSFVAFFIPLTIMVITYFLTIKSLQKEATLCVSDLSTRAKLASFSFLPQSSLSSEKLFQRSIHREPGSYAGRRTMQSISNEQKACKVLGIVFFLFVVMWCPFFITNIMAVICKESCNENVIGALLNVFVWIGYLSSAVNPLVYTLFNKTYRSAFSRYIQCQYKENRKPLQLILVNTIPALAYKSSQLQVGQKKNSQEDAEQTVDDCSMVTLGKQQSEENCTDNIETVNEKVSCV
T1 sequence (P28223 whole entry): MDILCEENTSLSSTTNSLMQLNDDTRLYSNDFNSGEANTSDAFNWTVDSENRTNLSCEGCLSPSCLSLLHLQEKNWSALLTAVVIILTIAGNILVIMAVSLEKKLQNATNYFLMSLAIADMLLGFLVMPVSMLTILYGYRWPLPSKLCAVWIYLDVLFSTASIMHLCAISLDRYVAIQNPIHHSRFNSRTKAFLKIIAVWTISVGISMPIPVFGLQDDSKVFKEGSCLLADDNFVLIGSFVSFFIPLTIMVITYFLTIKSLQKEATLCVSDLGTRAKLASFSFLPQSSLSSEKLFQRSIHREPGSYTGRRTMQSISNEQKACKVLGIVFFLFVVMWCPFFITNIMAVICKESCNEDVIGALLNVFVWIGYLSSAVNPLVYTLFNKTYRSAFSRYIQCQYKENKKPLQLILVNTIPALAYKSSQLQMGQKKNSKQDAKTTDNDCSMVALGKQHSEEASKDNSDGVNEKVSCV

The IC50 is the concentration at which inhibition is half-maximal. A lower IC50 goes with higher potency. For the compound `Cc1nc2ccc(Cl)cn2c(=O)c1CCN1CCc2[nH]c3cc(Cl)ccc3c2C1` [Compound 17], in assay [1], the IC50 is 251 nM. In assay [2], `Cc1nc2n(c(=O)c1CCN1CCc3[nH]c4ccc(F)cc4c3C1)CCCS2` [Compound 2, 7-[2-(8-fluoro-1,3,4,5-tetrahydro-2H-pyrido[4,3-b]indol-2-yl)ethyl]-3,4-dihydro-8-methyl-2H,6H-pyrimido[2,1-b][1,3]-thiazin-6-one] gave an IC50 of 36.3 nM. In other words, the double-digit nanomolar range. `Cc1nc2n(c(=O)c1CCN1CCc3[nH]c4ccc(F)cc4c3C1)CCCC2` [Compound 4] showed an IC50 in assay [2] of 12.6 nM. For the compound `Cc1nc2scc(C)n2c(=O)c1CCN1CCc2c(c3cc(F)ccc3n2-c2ccc(F)cc2)C1` [Compound 68], the IC50 in assay [1] was 6.61 nM. Regarding `Cc1nc2scc(C)n2c(=O)c1CCN1CCc2[nH]c3ccc(F)cc3c2C1` [Compound 5], in assay [1], the IC50 is 3.09 nM. The compound `Cc1nc2n(c(=O)c1CCN1CCc3[nH]c4ccc(Cl)cc4c3C1)CCS2` [Compound 26] showed an IC50 in assay [1] of 6.17 nM. Take `Cc1nc2sccn2c(=O)c1CCN1CCc2[nH]c3ccccc3c2C1` [Compound 38]: the results for the IC50 in assay [2] and in assay [1] were 8.13 nM and 12.6 nM, respectively.

In assay [1], `Cc1nc2n(c(=O)c1CCN1CCc3c(c4ccccc4n3-c3ccccc3)C1)CCCC2` [Compound 89] gave an IC50 of 6.92 nM. Take `Cc1nc2sccn2c(=O)c1CCN1CCc2[nH]c3cc(Cl)ccc3c2C1` [Compound 7]: the values for the half-inhibitory concentration (IC50) in assay [2] and in assay [1] were 7.59 nM and 22.9 nM, respectively. The matching figures for `Cc1nc2ccccn2c(=O)c1CCN1CCc2[nH]c3ccc(Cl)cc3c2C1` [Compound 28]: 1.23 nM and 7.59 nM. In assay [1], `Cc1nc2n(c(=O)c1CCN1CCc3[nH]c4cc(Cl)ccc4c3C1)CCS2` [Compound 12] came in with an IC50 of 617 nM.

Compound `Cc1nc2n(c(=O)c1CCN1CCc3c(c4ccccc4n3-c3ccccc3)C1)CCS2` [Compound 86] had an IC50 in assay [1] of 4.57 nM. Still for that read-out and setting: the value for `Cc1nc2c(C)cccn2c(=O)c1CCN1CCc2[nH]c3cc(Cl)ccc3c2C1` [Compound 13] was 1480 nM; that for `Cc1ccn2c(=O)c(CCN3CCc4[nH]c5cc(Cl)ccc5c4C3)c(C)nc2c1` [Compound 22] was 631 nM. Take `Cc1nc2ccccn2c(=O)c1CCN1CCc2[nH]c3cc(Cl)ccc3c2C1` [Compound 9]: the 50% inhibitory concentration (IC50) in assay [2] is 9.55 nM; in assay [1], 57.5 nM.

`Cc1ccc2[nH]c3c(c2c1)CN(CCc1c(C)nc2n(c1=O)CCCS2)CC3` [Compound 33]: the IC50 in assay [2] was 4.47 nM. As to `Cc1nc2n(c(=O)c1CCN1CCc3[nH]c4cc(Cl)ccc4c3C1)CCCC2` [Compound 10], the IC50 in assay [2] is 25.7 nM; in assay [1], 457 nM.

Take `Cc1nc2n(c(=O)c1CCN1CCc3[nH]c4cc(Cl)ccc4c3C1)CCCS2` [Compound 11]: the IC50 in assay [1] is 575 nM. In turn, `Cc1nc2ccccn2c(=O)c1CCN1CCc2c(c3ccccc3n2Cc2ccccc2)C1` [Compound 69] had an IC50 in assay [2] of 11.2 nM. This counts as double-digit nanomolar. The same measure, in the same setting: the value for `Cc1nc2n(c(=O)c1CCN1CCc3[nH]c4ccccc4c3C1)CCS2` [Compound 41] was 14.5 nM. With `Cc1nc2n(c(=O)c1CCN1CCc3c(c4cc(F)ccc4n3-c3ccc(F)cc3)C1)CCS2` [Compound 67], the half-maximal inhibitory concentration (IC50) is 1.82 nM in assay [2] and 4.37 nM in assay [1].

Consider `Cc1nc2scc(C)n2c(=O)c1CCN1CCc2[nH]c3cc(Cl)ccc3c2C1` [Compound 8], for which the IC50 is 4.27 nM in assay [2] and 9.77 nM in assay [1]. Consider `Cc1nc2ccccn2c(=O)c1CCN1CCc2[nH]c3ccc(F)cc3c2C1` [Compound 1], for which the IC50 is 3.89 nM in assay [2] and 13.2 nM in assay [1]. `COc1ccc2[nH]c3c(c2c1)CN(CCc1c(C)nc2ccccn2c1=O)CC3` [Compound 53]: the values for the IC50 in assay [2] and in assay [1] were 17.8 nM and 23.4 nM, respectively. For the compound `Cc1nc2scc(C)n2c(=O)c1CCN1CCc2[nH]c3ccc(Cl)cc3c2C1` [Compound 23], the IC50 in assay [2] was 1 nM; in assay [1], 2.34 nM.

`Fc1ccc2[nH]c3c(c2c1)CN(CCCCNc1nc2ccccc2s1)CC3` [Compound 108, N-2-benzothiazolyl-8-fluoro-1,3,4,5,-tetrahydro-2H-pyrido[4,3-b]indole-2-butanamine] had an IC50 in assay [2] of 550 nM. As to `Cc1cc(C)n2c(=O)c(CCN3CCc4[nH]c5cc(Cl)ccc5c4C3)c(C)nc2c1.O=C(O)/C=C/C(=O)O` [Compound 18], the 5HT2A-binding in assay [1] was 5.6. Regarding `Cc1nc2ccc(Br)cn2c(=O)c1CCN1CCc2[nH]c3cc(Cl)ccc3c2C1` [Compound 14], the half-inhibitory concentration (IC50) in assay [1] is 417 nM.

For `Cc1ccc2[nH]c3c(c2c1)CN(CCc1c(C)nc2n(c1=O)CCCC2)CC3` [Compound 36], in assay [1], the IC50 is 316 nM.

As for `Cc1nc2n(c(=O)c1CCN1CCc3[nH]c4ccc(Cl)cc4c3C1)CCCC2` [Compound 27], the IC50 in assay [2] is 2.82 nM.

As for `Cc1ccc2[nH]c3c(c2c1)CN(CCc1c(C)nc2n(c1=O)CCCC2)CC3` [Compound 35], in assay [2], the 50% inhibitory concentration (IC50) is 3.72 nM.

Turning to `Cc1nc2ccccn2c(=O)c1CCN1CCc2[nH]c3ccccc3c2C1` [Compound 37], the IC50 was 3.24 nM in assay [2] and 44.7 nM in assay [1]. In the case of `Cc1nc2sccn2c(=O)c1CCN1CCc2[nH]c3ccc(F)cc3c2C1` [Compound 6], the IC50 was 1 nM in assay [2] and 6.46 nM in assay [1]. With `Cc1ccc2[nH]c3c(c2c1)CN(CCc1c(C)nc2scc(C)n2c1=O)CC3` [Compound 32], the results for the IC50 in assay [2] and in assay [1] were 0.398 nM and 4.47 nM, respectively.

In the case of `Cc1nc2scc(C)n2c(=O)c1CCN1CCc2[nH]c3ccccc3c2C1` [Compound 39], the figures for the 50% inhibitory concentration (IC50) in assay [2] and in assay [1] were 2.63 nM and 5.01 nM, respectively.

For `Cc1ccc2[nH]c3c(c2c1)CN(CCc1c(C)nc2sccn2c1=O)CC3` [Compound 30], the IC50 is 1.62 nM in assay [2] and 8.32 nM in assay [1]. With `Cc1ccc2nc(C)c(CCN3CCc4[nH]c5cc(Cl)ccc5c4C3)c(=O)n2c1` [Compound 16], in assay [1], the IC50 is 126 nM. As to `Cc1nc2n(c(=O)c1CCN1CCc3[nH]c4ccc(Cl)cc4c3C1)CCCS2` [Compound 24], the IC50 in assay [2] was 1.95 nM; in assay [1] it was 8.51 nM. As to `Cc1nc2sccn2c(=O)c1CCN1CCc2[nH]c3ccc(Cl)cc3c2C1` [Compound 25], the IC50 in assay [1] is 3.31 nM.

With `COc1ccc2[nH]c3c(c2c1)CN(CCc1c(C)nc2n(c1=O)CCCC2)CC3` [Compound 52], the concentration for half-maximal inhibition (IC50) in assay [2] was 28.8 nM; in assay [1], 49 nM. In assay [1], `COc1cccn2c(=O)c(CCN3CCc4[nH]c5cc(Cl)ccc5c4C3)c(C)nc12` [Compound 20, 3-[2-(7-chloro-1,3,4,5-tetrahydro-2H-pyrido[4,3-b]indol-2-yl)ethyl]-9-methoxy-2-4-H-pyrido[1,2-a]pyrimidin-4-one] had an IC50 of 316 nM. This counts as sub-micromolar. Still for that read-out and setting: as for `Cc1nc2c(Cl)cc(C(F)(F)F)cn2c(=O)c1CCN1CCc2[nH]c3cc(Cl)ccc3c2C1` [Compound 15], the figure is 10000 nM.

With `Cc1nc(N)n(C)c(=O)c1CCN1CCc2[nH]c3ccccc3c2C1` [Compound 100], the IC50 in assay [2] is 5.01 nM.
